Like-named read-outs stand apart in the source and are kept apart here.
Tests used:
HSV-1 = conditions: for Log TCID50/100 ul: preliminary
Protocol: Experiments: 10 μL of virus stock was mixed with 100% saturated Ca(OH)2 (Final Ca(OH)2 concentration 99%) and incubated for different lengths of time. Then the mixture was diluted and the viable number of virus (Log TCID) was measured.
99% saturated Ca(OH)2 was used to treat 2 viruses using different incubation times (5 min to 1 hr).

Aspergillus niger(#9642) = conditions: 24 hr, very spotty growth, not yet a confluence lawn, other replicates patchy lawn

SMILES	log kill (HSV-1; HSV-1, in 1 hr)	Log TCID50/100 ul (HSV-1; HSV-1, incubation 0 min)	Log TCID50/100 ul (HSV-1; HSV-1, incubation 5 min)	Log TCID50/100 ul (HSV-1; HSV-1, incubation 10 min)	Log TCID50/100 ul (HSV-1; HSV-1, incubation 15 min)	Log TCID50/100 ul (HSV-1; HSV-1, incubation 30 min)	Log TCID50/100 ul (HSV-1; HSV-1, incubation 60 min)	Zone of Inhibition (Aspergillus niger(#9642); paste volume 0.2 ml)	Zone of Inhibition (Aspergillus niger(#9642); paste volume 0.3 ml)
[Ca+2].[OH-].[OH-] [99% saturated Ca(OH)2, calcium hydroxide]	> 3.5 log	6.5 Log TCID50/100 ul	6 Log TCID50/100 ul	5.5 Log TCID50/100 ul	3.5 Log TCID50/100 ul	3 Log TCID50/100 ul	<3 Log TCID50/100 ul	–	–
[Ca+2].[OH-].[OH-] [Ca(OH)2 paste, calcium hydroxide]	–	–	–	–	–	–	–	—, ~35≠, — mm	—, ~34≠, — mm

From patent US20160044927A1, “Disinfectant Formulation Comprising Calcium Hydroxide and Sodium Hypochlorite” (priority 2012, published 2016)
